# Test results taken from patent publication US20250352615A1, “COMPOSITIONS AND METHODS FOR THE MODULATION OF PIEZO1 AND TRPV4” (Duke University, priority 2021, published 2025).
# How the values were obtained:
# mouse PSCs = test: Mouse PSC activation and fibrogenic response; assay type: cell-based; settings: Yoda1 25 μM
# Method: (§1) Mouse and human PSCs were isolated using collagenase digestion. Modified Krebs Henseleit Buffer (KHB) solution (100 mL) was prepared as previously described by Romac et al., Nat. Commun. 9(1):1715 (2018). Pancreatic tissue was digested with 2 mg of collagenase NB 8 (SERVA, catalog 17456) dissolved in 10 mL of modified KHB solution containing 1 mg soybean trypsin inhibitor (SBTI 1-S; Millipore Sigma, catalog T9003) and 20 mg BSA (Thermo Fisher Scientific; BP1600-100). Digestion solution (5 mL) was used to inflate the pancreas. Pancreas with 5 mL of digestion solution was incubated in a shaking water bath for 10 minutes at 37° C. The solution was then discarded. The pancreas tissue was cut into small pieces and digested with fresh 5 mL digestion buffer. Tissue was incubated in a shaking water bath for 40 minutes at 37° C. The cells were then separated from tissue by pipetting up-down with a 10 mL pipette and passed sequentially through a 70 μm and a 40 μm cell strainer. The filtrate was centrifuged at 150×g for 3 minutes at room temperature. The cells were washed with 10 mL Leibovitz's media (Thermo Fisher Scientific, catalog 11415-064), passed through a 20 μm filter, and centrifuged at 80×g for 3 minutes at room temperature. The supernate was removed, and isolated stellate cells were plated on a thin-layered Matrigel-coated glass bottom culture plate (MatTek, P35G-0-14-C). Before plating the cells, Matrigel solution (Corning, catalog 354234) at a ratio of 1.5:100 DMEM/F12 (Thermo Fisher Scientific, catalog 11330-032) was poured onto the culture plate and incubated for 2 hr at 37° C. to form a thin layer of Matrigel coating. Matrigel mixture was removed, and the plate was washed with PBS before cells were plated. Cell culture media, DMEM/F12 with 5% FBS was used for mouse stellate cells. Fresh, human pancreatic tissue was digested with collagenase as described above with modifications. […] The cell viability following Yoda1 treatment was analyzed using the Live/Dead cell imaging kit (Thermo Fisher Scientific, catalog R37601). […]
# pancreatic acini = test: Trypsinogen activation in pancreatic acini (BZiPAR); assay type: cell-based, mouse
# Method: To visualize Piezo1-induced trypsinogen activation, acini were loaded with active trypsin enzyme substrate BZiPAR (10 μM). Na-HEPES buffer with 2 mM Ca^2+ was used during imaging. A Zeiss Axio observer Z1 with a high-sensitivity EMCCD camera with a ×40/0.75 EC-Plan-NeoFluar DIC objective was used to capture the Z-stack images with stack thickness of 3 μm at an interval of 12 seconds. The BZiPAR fluorescent wavelength Ex/Em was 498/521 nm. BZiPAR was excited at 470-510 nm and emission collected at 495-550 nm. The captured images were analyzed with MetaMorph software (Molecular Devices).
# Piezo1 = target: T1, Piezo1 (Mus musculus, UniProt E2JF22); test: Calcium imaging of Piezo1-mediated [Ca2+]i in mouse PSCs; assay type: cell-based
# T1 construct: endogenous in cells; host or cells: freshly isolated mouse pancreatic acini (WT = Piezo1 fl/fl on a C57BL/6J background)
# Method: Mouse and human PSCs were isolated using collagenase digestion. Modified Krebs Henseleit Buffer (KHB) solution (100 mL) was prepared as previously described by Romac et al., Nat. Commun. 9(1):1715 (2018). Pancreatic tissue was digested with 2 mg of collagenase NB 8 (SERVA, catalog 17456) dissolved in 10 mL of modified KHB solution containing 1 mg soybean trypsin inhibitor (SBTI 1-S; Millipore Sigma, catalog T9003) and 20 mg BSA (Thermo Fisher Scientific; BP1600-100). Digestion solution (5 mL) was used to inflate the pancreas. Pancreas with 5 mL of digestion solution was incubated in a shaking water bath for 10 minutes at 37° C. The solution was then discarded. The pancreas tissue was cut into small pieces and digested with fresh 5 mL digestion buffer. Tissue was incubated in a shaking water bath for 40 minutes at 37° C. The cells were then separated from tissue by pipetting up-down with a 10 mL pipette and passed sequentially through a 70 μm and a 40 μm cell strainer. The filtrate was centrifuged at 150×g for 3 minutes at room temperature. The cells were washed with 10 mL Leibovitz's media (Thermo Fisher Scientific, catalog 11415-064), passed through a 20 μm filter, and centrifuged at 80×g for 3 minutes at room temperature. The supernate was removed, and isolated stellate cells were plated on a thin-layered Matrigel-coated glass bottom culture plate (MatTek, P35G-0-14-C). Before plating the cells, Matrigel solution (Corning, catalog 354234) at a ratio of 1.5:100 DMEM/F12 (Thermo Fisher Scientific, catalog 11330-032) was poured onto the culture plate and incubated for 2 hr at 37° C. to form a thin layer of Matrigel coating. Matrigel mixture was removed, and the plate was washed with PBS before cells were plated. Cell culture media, DMEM/F12 with 5% FBS was used for mouse stellate cells. Fresh, human pancreatic tissue was digested with collagenase as described above with modifications. Collagenase (2.5 mg) in 10 mL of modified KHB solution was used for digestion. The digested tissues were filtered through a 100 μm cell strainer. The cells were cultured with DMEM/F12 with 10% FBS in a Matrigel-coated plate. After 24 hr, the cell media was replaced with fresh media to remove unattached and dead cells. After 2 days, cells were immunostained for GFAP and used for experiments. Perinuclear fat droplets were stained with BODIPY 493/503 (4,4-Difluoro-1,3,5,7,8-Pentamethyl-4-Bora-3a,4a-Diaza-s-Indacene; Invitrogen, catalog D3922) to confirm stellate cell quiescence. The cell viability following Yoda1 treatment was analyzed using the Live/Dead cell imaging kit (Thermo Fisher Scientific, catalog R37601). RNAs were isolated using the RiboPure Kit (Invitrogen, catalog AM1924) according to manufacturer's instructions.
# Fluid shear stress and mechanical pushing applied to stellate cells were achieved as previously described by Wang et al., J. Clin. Invest. 126(12): 4527-4536 (2016). Parallel-plate fluid flow chambers (μ-Slide I 0.4 Luer, or μ-Slide I 0.2 Luer from Ibidi) were used for fluid shear stress experiments. The fluid shear stress (T) was calculated using the formula: τ=η×[…] φ for μ-Slide I 0.4 Luer and τ=η×330.4 φ for μ-Slide I 0.2 Luer, where r represents viscosity of the medium and φ represents flow rate (according to the manufacturer's instructions, Ibidi). Mechanical pushing was achieved by applying a blunt borosilicate glass pipette once to the cell membrane with a deflection of 2-3 μm for 1 second using a micromanipulator (World Precision Instruments).
# Calcium 6-QF (Molecular Devices) dye was used for live-cell calcium imaging as described by Romac et al., Nat. Commun. 9(1):1715 (2018). Cells were imaged in HBSS buffer with 2 mM Ca^2+. Faintly and highly fluorescent loaded cells were excluded from analysis. […]
# TRPV4 = target: T2, TRPV4 (Mus musculus, UniProt Q9EPK8); test: Calcium imaging of TRPV4-mediated [Ca2+]i in mouse PSCs; assay type: cell-based; settings: Yoda1 25 μM
# T2 construct: endogenous in cells; host or cells: freshly isolated mouse pancreatic acini (C57BL/6J WT)
# Method: as §1
# T1 sequence (E2JF22 whole entry): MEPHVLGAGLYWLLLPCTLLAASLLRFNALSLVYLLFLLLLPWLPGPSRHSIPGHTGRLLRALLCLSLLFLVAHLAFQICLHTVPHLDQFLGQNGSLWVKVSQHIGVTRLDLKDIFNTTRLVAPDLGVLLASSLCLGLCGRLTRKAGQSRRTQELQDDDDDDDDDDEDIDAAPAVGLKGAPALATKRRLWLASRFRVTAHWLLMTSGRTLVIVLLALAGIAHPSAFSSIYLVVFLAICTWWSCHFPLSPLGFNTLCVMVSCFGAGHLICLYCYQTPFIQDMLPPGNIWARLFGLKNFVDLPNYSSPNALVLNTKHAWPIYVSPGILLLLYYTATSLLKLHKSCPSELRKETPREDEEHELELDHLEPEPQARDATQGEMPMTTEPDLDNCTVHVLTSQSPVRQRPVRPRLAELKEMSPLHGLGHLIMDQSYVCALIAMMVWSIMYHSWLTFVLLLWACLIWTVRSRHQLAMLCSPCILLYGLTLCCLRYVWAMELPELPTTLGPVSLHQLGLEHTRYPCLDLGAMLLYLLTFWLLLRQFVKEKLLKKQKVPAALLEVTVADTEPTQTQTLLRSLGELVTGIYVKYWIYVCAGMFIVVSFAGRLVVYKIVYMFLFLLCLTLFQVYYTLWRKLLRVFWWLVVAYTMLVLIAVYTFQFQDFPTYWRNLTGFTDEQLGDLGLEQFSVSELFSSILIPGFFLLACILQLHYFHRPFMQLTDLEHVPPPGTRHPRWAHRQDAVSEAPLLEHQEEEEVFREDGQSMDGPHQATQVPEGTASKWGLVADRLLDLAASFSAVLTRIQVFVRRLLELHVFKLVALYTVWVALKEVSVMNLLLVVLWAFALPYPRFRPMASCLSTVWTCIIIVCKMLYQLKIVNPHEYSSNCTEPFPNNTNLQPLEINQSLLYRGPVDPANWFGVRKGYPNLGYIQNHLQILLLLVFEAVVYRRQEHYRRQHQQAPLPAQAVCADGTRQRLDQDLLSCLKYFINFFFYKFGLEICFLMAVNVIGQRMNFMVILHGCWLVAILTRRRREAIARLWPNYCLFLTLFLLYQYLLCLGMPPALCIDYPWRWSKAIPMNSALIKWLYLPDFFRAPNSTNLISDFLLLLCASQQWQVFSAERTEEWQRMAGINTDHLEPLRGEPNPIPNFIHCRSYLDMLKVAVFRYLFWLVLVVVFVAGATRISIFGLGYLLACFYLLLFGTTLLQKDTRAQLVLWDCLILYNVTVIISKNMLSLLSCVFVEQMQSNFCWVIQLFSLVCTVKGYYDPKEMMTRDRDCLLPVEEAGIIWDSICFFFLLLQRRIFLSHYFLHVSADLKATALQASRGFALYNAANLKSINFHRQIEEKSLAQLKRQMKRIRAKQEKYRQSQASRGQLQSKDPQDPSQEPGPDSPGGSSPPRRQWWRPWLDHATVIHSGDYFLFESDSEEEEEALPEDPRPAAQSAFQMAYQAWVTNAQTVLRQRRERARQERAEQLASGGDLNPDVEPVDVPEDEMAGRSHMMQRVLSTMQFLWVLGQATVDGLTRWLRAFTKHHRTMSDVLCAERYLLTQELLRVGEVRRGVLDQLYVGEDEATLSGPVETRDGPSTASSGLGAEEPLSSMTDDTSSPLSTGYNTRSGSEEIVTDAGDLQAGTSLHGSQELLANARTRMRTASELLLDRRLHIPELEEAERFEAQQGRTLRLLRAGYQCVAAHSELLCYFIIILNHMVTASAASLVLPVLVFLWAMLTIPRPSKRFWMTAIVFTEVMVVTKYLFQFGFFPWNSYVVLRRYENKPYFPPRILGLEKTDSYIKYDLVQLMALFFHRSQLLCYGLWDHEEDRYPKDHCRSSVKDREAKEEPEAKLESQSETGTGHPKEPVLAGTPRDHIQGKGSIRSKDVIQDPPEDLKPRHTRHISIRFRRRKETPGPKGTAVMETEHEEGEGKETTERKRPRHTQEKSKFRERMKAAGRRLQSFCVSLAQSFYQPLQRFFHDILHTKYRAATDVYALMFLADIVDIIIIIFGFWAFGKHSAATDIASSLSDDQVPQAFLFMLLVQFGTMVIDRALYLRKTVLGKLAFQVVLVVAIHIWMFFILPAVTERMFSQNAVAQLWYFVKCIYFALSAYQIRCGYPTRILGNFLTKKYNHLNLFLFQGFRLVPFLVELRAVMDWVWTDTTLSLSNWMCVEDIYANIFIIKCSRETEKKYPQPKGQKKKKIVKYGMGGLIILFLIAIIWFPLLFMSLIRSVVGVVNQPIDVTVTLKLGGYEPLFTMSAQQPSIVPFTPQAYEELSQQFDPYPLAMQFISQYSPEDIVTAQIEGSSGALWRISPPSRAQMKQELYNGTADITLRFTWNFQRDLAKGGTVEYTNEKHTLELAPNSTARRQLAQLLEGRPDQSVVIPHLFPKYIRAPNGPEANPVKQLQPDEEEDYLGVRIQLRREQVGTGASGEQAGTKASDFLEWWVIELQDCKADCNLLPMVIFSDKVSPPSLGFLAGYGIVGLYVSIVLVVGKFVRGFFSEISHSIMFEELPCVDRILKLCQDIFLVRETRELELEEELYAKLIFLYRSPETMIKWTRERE
# T2 sequence (Q9EPK8 whole entry): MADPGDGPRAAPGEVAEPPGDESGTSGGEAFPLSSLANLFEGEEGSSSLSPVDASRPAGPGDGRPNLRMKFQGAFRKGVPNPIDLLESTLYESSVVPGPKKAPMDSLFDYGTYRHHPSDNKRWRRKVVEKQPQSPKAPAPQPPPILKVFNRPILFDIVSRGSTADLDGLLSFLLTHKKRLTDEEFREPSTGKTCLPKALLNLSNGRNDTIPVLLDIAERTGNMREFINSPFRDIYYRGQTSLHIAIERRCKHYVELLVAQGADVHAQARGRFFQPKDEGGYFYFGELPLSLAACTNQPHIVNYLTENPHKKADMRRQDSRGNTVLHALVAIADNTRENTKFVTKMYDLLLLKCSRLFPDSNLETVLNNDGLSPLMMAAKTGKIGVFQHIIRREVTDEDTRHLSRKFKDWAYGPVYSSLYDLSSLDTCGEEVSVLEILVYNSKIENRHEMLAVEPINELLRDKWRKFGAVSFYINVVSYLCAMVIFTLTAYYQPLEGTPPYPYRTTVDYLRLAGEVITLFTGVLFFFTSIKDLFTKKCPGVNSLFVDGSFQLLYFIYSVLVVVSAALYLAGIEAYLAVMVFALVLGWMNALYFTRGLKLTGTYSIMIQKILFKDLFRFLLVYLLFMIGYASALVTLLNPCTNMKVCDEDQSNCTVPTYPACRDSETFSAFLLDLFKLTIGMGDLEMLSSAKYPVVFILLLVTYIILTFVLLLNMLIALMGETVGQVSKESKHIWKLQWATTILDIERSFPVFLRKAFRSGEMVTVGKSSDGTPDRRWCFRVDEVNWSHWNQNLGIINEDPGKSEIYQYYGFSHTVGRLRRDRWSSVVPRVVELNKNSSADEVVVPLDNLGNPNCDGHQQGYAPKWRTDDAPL
structure (smiles),measurement,setting,value
Clc1cccc(Cl)c1CSc1nnc(-c2cnccn2)s1 [Yoda1],"activation of PSCs from TRPV4-KO mice (cell shape, perinuclear fat droplets, ECM protein expression)",mouse PSCs,did not activate PSCs from TRPV4-KO mice
same,effects of Yoda1 on fibrosis in Piezo1-deleted PSCs,mouse PSCs; Piezo1GFAP-KO PSCs,prevented in Piezo1-deleted PSCs
same,PSC activation phenotype,mouse PSCs; WT mouse PSCs,"converted mouse PSCs to an activated phenotype with reduced perinuclear fat droplets, changes in cell shape, and increased fibronectin and collagen type I"
same,trypsin activation in acinar cells from Piezo1aci-KO mice,pancreatic acini; Yoda1,did not respond to Yoda1
same,trypsin activation (BZiPAR fluorescence),pancreatic acini; Yoda1 50 μM or CCK 10 nM,activated trypsin in pancreatic acini over time
same,time to trypsin activation after application,"pancreatic acini; Yoda1 50 μM, CCK 10 nM",≤ 10 min
same,Yoda1-stimulated [Ca2+]i increase in Piezo1-deleted PSCs,"Piezo1; Yoda1 25 μM, Piezo1GFAP-KO",absent in Piezo1-deleted PSCs
same,[Ca2+]i response to Yoda1,Piezo1; mouse PSCs,dose-dependent increases in [Ca^2+]i elevation
same,[Ca2+]i response in TRPV4-null PSCs,TRPV4,caused only transient calcium elevations in TRPV4-null PSCs
